This is an account of results in US5554630A, “Benzimidazole compounds” (NeuroSearch A/S, priority 1993, dated 1996).

For assay [1], the target named is benzodiazepine receptor (GABAA receptor). The assay can be described thus: in vitro inhibition of 3H-flunitrazepam binding (rat cerebral cortex membranes). Also noted: species or system rat (male Wistar. From the text:
At present two types of GABA receptors are known, the GABAA and the GABAB receptors. […] Activation of GABA receptors leads to alternations in membrane potential (hyperpolarization). The GABAA receptors are associated with chloride influx through its associated and integrated chloride channel, whereas GABAB receptor activation indirectly alters potassium and calcium channels as well as modifies second messenger production. The GABAA recognition sites can be activated by GABA, muscimol; and isoguvacine for example, but not by GABAB agonists such as for example baclofen. The modulatory GABAA recognition site at the benzodiazepine receptor sites can be selectively radiolabelled with 3H-flunitrazepam. The affinity of various potential ligands for the benzodiazepine receptor sites can thus be evaluated by estimating the ability of test compounds to displace 3H-flunitrazepam.
Tissue preparations are performed at zero to four degrees Celsius. Cerebral cortex from male Wistar rats (150-200 g) is homogenized in 2 times 10 ml Tris-HCl, 30 mM at pH 7.4 The resulting suspension is centrifuged at 40,000 g for 15 minutes. The pellet is washed three times with buffer, centrifuged at two degrees Celsius at 40,000 g for ten minutes. The washed pellet is homogenized in 2 times 10 ml of buffer and is thereafter incubated on a water bath at 37° C. for 30 minutes and is thereafter centrifuged at 40,000 g for 10 minutes. The pellet is then homogenized with buffer and is centrifuged at 0° C. for 10 minutes at 40,000 g. The final pellet is resuspended in 30 ml buffer and the preparation may thereafter be stored at -20° C. In the test situation the membrane preparation is thawed and centrifuged at 2° C. for ten minutes at 48,000 g. The pellet is then washed two times with 2 times 10 ml 50 mM Tris-citrate at pH 7.1 using an Ultra-Turrax homogenizer and centrifuged at 48,000 g for 10 minutes. The hereby obtained pellet is resuspended in 50 mM Tris-citrate at pH 7.1,500 ml buffer per gram of original tissue, and is then used for binding assays. Aliquots of 0.5 ml tissue is added to 0.025 ml of 3H-flunitrazepam, final concentration of 1 nM, and is mixed and incubated for 40 minutes at 2° C. Non-specificbinding is determined using clonazepam, at 100 ng/ml final concentration. After incubation 5 ml of icecold buffer is added to the samples and these are poured directly onto Whatman GF/C glass fibre filters under suction and is immediately washed with 5 ml icecold buffer. The amount of radioactivity on the filters is determined by conventional liquid scintillation counting. Specific binding is total binding minus non specific binding. Test value is calculated as the IC50 which is equivalent to the concentration which inhibits the specific binding by 50 percent.
The method used to determine in vitro inhibition of ^3 H-flunitrazepam binding is presented under the heading of Biology.

Assay [2] has as its system GABAA receptor-ion channel complex (benzodiazepine receptor, mouse forebrain). The assay is described as follows: in vivo inhibition of 3H-flunitrazepam binding in mouse forebrain. Also noted: species or system mouse (female NMRI). To be noted: i.p. 10 min before i.v. 3H-FNM, mice killed 20 min later, 30 min.
In assay [3] the test system is GABAA receptor-ion channel complex. Particulars: background statement, in vitro; cited from earlier work.
Where [4] appears, read: first table, 1 nM 3H-flunitrazepam, 40 min at 2° C, read-out: IC50.
Where [5] appears, read: second table (R6/R11), 3H-flunitrazepam, read-out: in-vitro binding IC50.

Like-named read-outs stand apart in the source and are kept apart here.

For the compound `CN1C(=O)c2ccccc2-n2cnc3cc(C(F)(F)F)cc1c32` [Compound 2f, 4-trifluoromethyl-6,7-dihydro-6-methyl-7-oxo-benzimidazo[3,4-ab][1,4]benzodiazepine], the IC50 (usually the concentration at which inhibition is half-maximal) in assay [1] (setting [4]) came to 5.4 nM.

Regarding `FC(F)(F)c1ccc2c(c1)ncn2-c1cccc(-n2ccnc2)c1` [Compound 3a, 1-(3-(1-Imidazolyl)-phenyl)-5 trifluoromethylbenzimidazole], the “in-vivo binding ED50” value in assay [2] worked out at 7.3 mg/kg. In addition, the concentration for half-maximal inhibition (IC50) in assay [1] (setting [5]) came out at 16 nM.

On to `CC(C)OC(=O)c1ccc2c(c1)ncn2-c1cccc(-n2ccnc2)c1` [Compound 4a], for which the “in-vivo binding ED50” value in assay [2] is given as over 10.0 mg/kg. Also, the half-inhibitory concentration (IC50) in assay [1] (setting [5]) is 11 nM.

For the compound `Cc1ccc2c(c1)ncn2-c1cccc(-n2ccnc2)c1` [Compound 5a, 1-[3-(1-imidazolyl)-phenyl]-5-methyl-benzimidazole], in assay [2], the “in-vivo binding ED50” value came out at 0.8 mg/kg. Besides, the half-maximal inhibitory concentration (IC50) in assay [1] (setting [4]) and in assay [1] (setting [5]) was 1.2 nM throughout.

Turning to `CC(C)(C)c1ccc2c(c1)ncn2-c1cccc(-n2ccnc2)c1` [Compound 6a, 1-[3-(1-imidazolyl)-phenyl]-5-t-butyl-benzimidazole], in assay [2], the “in-vivo binding ED50” value amounted to 2.1 mg/kg. Further, the IC50 in assay [1] (setting [4]) and in assay [1] (setting [5]) was 2.4 nM each time.

As to `Cc1cn(-c2cccc(-n3cnc4cc(C(C)(C)C)ccc43)c2)cn1` [Compound 8a], in assay [1] (setting [5]), the half-inhibitory concentration (IC50) was found to be 11 nM.

Turning to `c1ccc(-c2ccc3c(c2)ncn3-c2cccc(-n3ccnc3)c2)cc1` [Compound 9a, 1-[3-(1-imidazolyl)-phenyl]-5-phenyl-benzimidazole], the “in-vivo binding ED50” value in assay [2] is reported as 8.9 mg/kg. In addition, the IC50 worked out at 7.4 nM in assay [1] (setting [4]) and 7.2 nM in assay [1] (setting [5]).

`CC(C)c1ccc2c(c1)ncn2-c1cccc(-n2ccnc2)c1` [Compound 14a, 1-[3-(1-imidazolyl)-phenyl]-5-i-propyl-benzimidazole]: the “in-vivo binding ED50” value in assay [2] is reported as 1.2 mg/kg. Further, the IC50 in assay [1] (setting [4]) and in assay [1] (setting [5]) was 0.6 nM throughout.

For the compound `Ic1ccc2c(c1)ncn2-c1cccc(-c2cccnc2)c1` [Compound 18a, 1-[3-(3-pyridyl)-phenyl]-5-iodo-benzimidazole], the “in-vivo binding ED50” value in assay [2] came out at 1.5 mg/kg. Further, the IC50 in assay [1] (setting [4]) and in assay [1] (setting [5]) was 1.7 nM throughout.

Regarding `CC(C)(C)c1ccc2c(c1)ncn2-c1cccc(-c2cccnc2)c1` [Compound 22a, 1-[3-(3-pyridyl)-phenyl]-5-t-butyl-benzimidazole], the “in-vivo binding ED50” value in assay [2] is reported as 16.3 mg/kg. For the same compound, the IC50 in assay [1] (setting [5]) turned out to be 10 nM.

`O=[N+]([O-])c1ccc2c(c1)ncn2-c1cccc(-c2cccnc2)c1` [Compound 24a]: the “in-vivo binding ED50” value in assay [2] is recorded as 6.1 mg/kg. Moreover, in assay [1] (setting [5]), the half-maximal inhibitory concentration (IC50) stood at 40 nM.

On to `Cc1noc(-c2cccc(-n3cnc4cc(C(C)(C)C)ccc43)c2)n1` [Compound 33a], for which the “in-vivo binding ED50” value in assay [2] came to 8.2 mg/kg. Further, in assay [1] (setting [5]), the 50% inhibitory concentration (IC50) came to 13 nM.

Take `CC(C)c1ccc2c(c1)ncn2-c1cccc(-n2cnc3ccccc32)c1` [Compound 34a, 1-[3-(1-benzimidazolyl)-phenyl]-5-i-propyl-benzimidazole]: the “in-vivo binding ED50” value in assay [2] came out at 2.8 mg/kg. The 50% inhibitory concentration (IC50) in assay [1] (setting [4]) and in assay [1] (setting [5]) was 4.3 nM throughout.

As to `Cc1nccn1-c1cccc(-n2cnc3cc(-c4ccccc4)ccc32)c1` [Compound 38a, 1-[3-(1-(2-methylimidazolyl))-phenyl]-5-phenyl-benzimidazole], in assay [2], the “in-vivo binding ED50” value stood at 2.6 mg/kg. The IC50 in assay [1] (setting [4]) and in assay [1] (setting [5]) was 9 nM in each case.

With `FC(F)(F)c1ccc2c(c1)ncn2-c1cccc(-n2cnc3ccccc32)c1` [Compound 39a, 1-[3-(1-benzimidazolyl)-phenyl]-5-trifluoromethyl-benzimidazole], the “in-vivo binding ED50” value in assay [2] was found to be 7.5 mg/kg. For the same compound, the IC50 in assay [1] (setting [4]) and in assay [1] (setting [5]) was 9.2 nM each time.

Turning to `O=CNc1ccc2c(c1)ncn2-c1cccc(-n2ccnc2)c1` [Compound 41a], the “in-vivo binding ED50” value in assay [2] is recorded as over 10.0 mg/kg. Besides, the IC50 in assay [1] (setting [5]) came to 13 nM.

Take `c1cncc(-c2cccc(-n3cnc4cc(-c5ccoc5)ccc43)c2)c1` [Compound 45a, 1-[3-(3-pyridyl)-phenyl]-5-(3-furanyl)-benzimidazole]: the “in-vivo binding ED50” value in assay [2] is 1.9 mg/kg. Further, the IC50 came out at 1.2 nM in assay [1] (setting [4]) and 1.4 nM in assay [1] (setting [5]).

Take `O=Cc1ccc2c(c1)ncn2-c1cccc(-c2cccnc2)c1` [Compound 50a, 1-(3-(3-pyridyl)phenyl)-5-formylbenzimidazole]: the “in-vivo binding ED50” value in assay [2] was over 3 mg/kg. The concentration for half-maximal inhibition (IC50) in assay [1] (setting [5]) came out at 37 nM.

Turning to `ON=Cc1ccc2c(c1)ncn2-c1cccc(-c2cccnc2)c1` [Compound 52a, 1-(3-(3-pyridyl)phenyl)-5-aldoximobenzimidazole], the “in-vivo binding ED50” value in assay [2] worked out at 1.6 mg/kg. Also, the IC50 in assay [1] (setting [5]) turned out to be 3.3 nM.

As to `c1cncc(-c2cccc(-n3cnc4cc(-c5nc(C6CC6)no5)ccc43)c2)c1` [Compound 53a], the “in-vivo binding ED50” value in assay [2] was 24.0 mg/kg. The IC50 in assay [1] (setting [5]) came to 28 nM.

As for `NC(=O)NN=Cc1ccc2c(c1)ncn2-c1cccc(-c2cccnc2)c1` [Compound 55a, 1-(3-(3-pyridyl)phenyl)-5-semicarbazonobenzimidazole], the “in-vivo binding ED50” value in assay [2] was over 3.0 mg/kg. The half-inhibitory concentration (IC50) in assay [1] (setting [5]) turned out to be 7.6 nM.

Regarding `c1cncc(-c2cccc(-n3cnc4cc(-n5ccnc5)ccc43)c2)c1` [Compound 56a], in assay [2], the “in-vivo binding ED50” value is on record as 6.8 mg/kg. For the same compound, the IC50 in assay [1] (setting [5]) came out at 22 nM.

Turning to `c1cncc(-c2cccc(-n3cnc4cc(-c5ccco5)ccc43)c2)c1` [Compound 57a, 1-[3-(3-pyridyl)-phenyl]-5-(2-furanyl)-benzimidazole], the “in-vivo binding ED50” value in assay [2] came out at 4.8 mg/kg. Moreover, the half-maximal inhibitory concentration (IC50) in assay [1] (setting [5]) was 4.3 nM.

`COCc1ccc2c(c1)ncn2-c1cccc(-c2cccnc2)c1` [Compound 58a]: the “in-vivo binding ED50” value in assay [2] is reported as 1.7 mg/kg. The concentration for half-maximal inhibition (IC50) in assay [1] (setting [5]) was 15 nM.

In the case of `CON=Cc1ccc2c(c1)ncn2-c1cccc(-c2cccnc2)c1` [Compound 59a, 1-[3-(3-pyridyl)-phenyl]-5-methylaldoximo-benzimidazole], the “in-vivo binding ED50” value in assay [2] was 1.04 mg/kg. Further, the IC50 in assay [1] (setting [5]) worked out at 2 nM.

With `CC(C)c1ccc2c(c1)ncn2-c1cccc(-c2cccnc2)c1` [Compound 60a, 1-[3-(3-pyridyl)-phenyl]-5-i-propyl-benzimidazole], the “in-vivo binding ED50” value in assay [2] amounted to 2.2 mg/kg. Also, in assay [1] (setting [5]), the concentration for half-maximal inhibition (IC50) is 4.2 nM.

For the compound `CN1C(=O)CN=C(c2ccccc2F)c2cc([N+](=O)[O-])ccc21` [^3 H-FNM], the “binding to the GABAA receptor-ion channel complex (in words)” value in assay [3] was “selectively and with high-affinity”.
